The assay has as its target T1, human GLP-1 receptor (Homo sapiens, UniProt P43220).
T1 construct: expressed in transfected cells; host or cells: BHK cells (parent BHKTS13), clone FCW467-12A/KZ10-1, with CRE luciferase
Put plainly: GLP-1 receptor binding, 125I-GLP-1 displacement SPA on isolated membranes. The conditions noted are these: displacement of 125I-GLP-1 from membranes; read-out: IC50 GLP-1R. In outline: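 SPA displacement of 125I-GLP-1(7-36)NH2 from membranes of BHK cells expressing human GLP-1 receptor, with WGA beads, in 50 mM HEPES, 5 mM EGTA, 5 mM MgCl2, 0.005% Tween 20, pH 7.4. Incubated 2 h at 30°C; IC50 by non-linear regression, run at ≤0.001% or 2.0% final serum albumin.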
For orientation: In a radioligand displacement assay an active substance lowers the binding of a labelled ligand.

SMILES strings stand for the structures. Numbered stars: 1 amine (or outer) side, 2 acyl side, 3 side chain; on linkers, the order of the positions; unused ones are H or OH. Bridge positions count the residues as written; N and C are the ends. Square brackets hold non-standard residues; d marks the D form. Side chains are listed from the residue outwards. Peptide text beside a SMILES is read from it. I, II: the chains in the order shown. * marks the point of attachment. C18 diacid = O=C(O)CCCCCCCCCCCCCCCCC(=O)*; γGlu = O=C(O)[C@H](CCC(=O)[*:2])N[*:1]; Ac4c = NC1(C(=O)O)CCC1; AEEA = NCCOCCOCC(=O)O

T1 sequence (P43220 24-463): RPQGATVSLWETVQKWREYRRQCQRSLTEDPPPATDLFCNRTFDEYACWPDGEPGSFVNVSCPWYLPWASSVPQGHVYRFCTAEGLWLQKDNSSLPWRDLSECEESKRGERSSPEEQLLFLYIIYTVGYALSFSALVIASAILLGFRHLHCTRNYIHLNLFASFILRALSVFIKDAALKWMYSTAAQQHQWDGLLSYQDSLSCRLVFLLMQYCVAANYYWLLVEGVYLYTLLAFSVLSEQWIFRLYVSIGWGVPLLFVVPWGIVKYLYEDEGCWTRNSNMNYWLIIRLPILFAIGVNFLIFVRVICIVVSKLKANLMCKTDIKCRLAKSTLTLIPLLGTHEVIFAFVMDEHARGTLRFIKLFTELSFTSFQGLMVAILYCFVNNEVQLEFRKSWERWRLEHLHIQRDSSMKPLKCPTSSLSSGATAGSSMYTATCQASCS

With `CC(C)C[C@H](NC(=O)[C@H](Cc1ccc(O)cc1)NC(=O)[C@H](CCCCN)NC(=O)[C@H](CO)NC(=O)[C@H](CC(C)C)NC(=O)[C@H](CC(=O)O)NC(=O)[C@H](CO)NC(=O)[C@@H](NC(=O)[C@H](Cc1ccccc1)NC(=O)[C@@H](NC(=O)CNC(=O)[C@H](CCC(N)=O)NC(=O)C1(NC(=O)[C@@H](N)Cc2c[nH]cn2)CCC1)[C@@H](C)O)[C@@H](C)O)C(=O)N[C@@H](CCC(=O)O)C(=O)N[C@@H](CO)C(=O)N[C@@H](CCCNC(=N)N)C(=O)N[C@@H](CCCNC(=N)N)C(=O)N[C@@H](C)C(=O)N[C@@H](CCCNC(=N)N)C(=O)N[C@@H](CCC(=O)O)C(=O)N[C@@H](Cc1ccccc1)C(=O)N[C@H](C(=O)N[C@@H](CCC(N)=O)C(=O)N[C@@H](Cc1c[nH]c2ccccc12)C(=O)N[C@@H](CC(C)C)C(=O)N[C@@H](CC(C)C)C(=O)N[C@@H](CCCCNC(=O)CC[C@H](NC(=O)CC[C@H](NC(=O)COCCOCCNC(=O)COCCOCCNC(=O)CC[C@H](NC(=O)CCCCCCCCCCCCCCCCC(=O)O)C(=O)O)C(=O)O)C(=O)O)C(=O)N[C@H](C(N)=O)[C@@H](C)O)C(C)C` [Example 44, N^ε28-[(4S)-4-carboxy-4-[[(4S)-4-carboxy-4-[[2-[2-[2-[[2-[2-[2-[[(4S)-4-carboxy-4-(17-carboxyheptadecanoylamino)butanoyl]amino]ethoxy]ethoxy]acetyl]amino]ethoxy]ethoxy]acetyl]amino]butanoyl]amino]butanoyl]-[Acb2,Leu10,Glu15,Arg20,Glu21,Leu27,Lys28]-Glucagon amide] (H-H[Ac4c]QGTFTSDLSKYLESRRAREFVQWLLK([γGlu-γGlu-AEEA-AEEA-γGlu-C18 diacid])T-NH2; N-terminus assumed), the IC50 stood at 0.3 nM.

For the compound `CC(C)C[C@H](NC(=O)[C@H](CC(=O)O)NC(=O)[C@H](CC(C)C)NC(=O)[C@H](Cc1ccc(O)cc1)NC(=O)[C@H](CCCCN)NC(=O)[C@H](CO)NC(=O)[C@H](CC(C)C)NC(=O)[C@H](CC(=O)O)NC(=O)[C@H](CO)NC(=O)[C@@H](NC(=O)[C@H](Cc1ccccc1)NC(=O)[C@@H](NC(=O)CNC(=O)[C@H](CCC(N)=O)NC(=O)C1(NC(=O)[C@@H](N)Cc2c[nH]cn2)CCC1)[C@@H](C)O)[C@@H](C)O)C(=O)N[C@@H](CCCNC(=N)N)C(=O)N[C@@H](CCCNC(=N)N)C(=O)N[C@@H](C)C(=O)N[C@@H](CCCNC(=N)N)C(=O)N[C@@H](CC(=O)O)C(=O)N[C@@H](Cc1ccccc1)C(=O)N[C@H](C(=O)N[C@@H](CCC(N)=O)C(=O)N[C@@H](Cc1c[nH]c2ccccc12)C(=O)N[C@@H](CC(C)C)C(=O)N[C@@H](CC(C)C)C(=O)N[C@@H](CCCCNC(=O)CC[C@H](NC(=O)CC[C@H](NC(=O)COCCOCCNC(=O)COCCOCCNC(=O)CC[C@H](NC(=O)CC[C@H](NC(=O)CCCCCCCCCCCCCCCCC(=O)O)C(=O)O)C(=O)O)C(=O)O)C(=O)O)C(=O)N[C@H](C(N)=O)[C@@H](C)O)C(C)C` [Example 45, N^ε28-[(4S)-4-carboxy-4-[[(4S)-4-carboxy-4-[[2-[2-[2-[[2-[2-[2-[[(4S)-4-carboxy-4-[[(4S)-4-carboxy-4-(17-carboxyheptadecanoylamino)butanoyl]amino]butanoyl]amino]ethoxy]ethoxy]acetyl]amino]ethoxy]ethoxy]acetyl]amino]butanoyl]amino]butanoyl]-[Acb2,Leu10,Leu16,Arg20,Leu27,Lys28]-Glucagon amide] (H-H[Ac4c]QGTFTSDLSKYLDLRRARDFVQWLLK([γGlu-γGlu-AEEA-AEEA-γGlu-γGlu-C18 diacid])T-NH2; N-terminus assumed), the IC50 is 0.4 nM. `CC(C)C[C@H](NC(=O)[C@H](CC(=O)O)NC(=O)[C@H](CC(C)C)NC(=O)[C@H](Cc1ccc(O)cc1)NC(=O)[C@H](CCCNC(=N)N)NC(=O)[C@H](CO)NC(=O)[C@H](CC(C)C)NC(=O)[C@H](CC(=O)O)NC(=O)[C@H](CO)NC(=O)[C@@H](NC(=O)[C@H](Cc1ccccc1)NC(=O)[C@@H](NC(=O)CNC(=O)[C@H](CCC(N)=O)NC(=O)C1(NC(=O)[C@@H](N)Cc2c[nH]cn2)CCC1)[C@@H](C)O)[C@@H](C)O)C(=O)N[C@@H](CCCNC(=N)N)C(=O)N[C@@H](CCCNC(=N)N)C(=O)N[C@@H](C)C(=O)N[C@@H](CCCNC(=N)N)C(=O)N[C@@H](CC(=O)O)C(=O)N[C@@H](Cc1ccccc1)C(=O)N[C@H](C(=O)N[C@@H](CCC(N)=O)C(=O)N[C@@H](Cc1c[nH]c2ccccc12)C(=O)N[C@@H](CC(C)C)C(=O)N[C@@H](CC(C)C)C(=O)N[C@@H](CCCCNC(=O)CC[C@H](NC(=O)CC[C@H](NC(=O)COCCOCCNC(=O)COCCOCCNC(=O)CC[C@H](NC(=O)CC[C@H](NC(=O)CCCCCCCCCCCCCCCCC(=O)O)C(=O)O)C(=O)O)C(=O)O)C(=O)O)C(=O)N[C@H](C(N)=O)[C@@H](C)O)C(C)C` [Example 46, N^ε28-[(4S)-4-carboxy-4-[[(4S)-4-carboxy-4-[[2-[2-[2-[[2-[2-[2-[[(4S)-4-carboxy-4-[[(4S)-4-carboxy-4-(17-carboxyheptadecanoylamino)butanoyl]amino]butanoyl]amino]ethoxy]ethoxy]acetyl]amino]ethoxy]ethoxy]acetyl]amino]butanoyl]amino]butanoyl]-[Acb2,Leu10,Arg12,Leu16,Arg20,Leu27,Lys28]-Glucagon amide] (H-H[Ac4c]QGTFTSDLSRYLDLRRARDFVQWLLK([γGlu-γGlu-AEEA-AEEA-γGlu-γGlu-C18 diacid])T-NH2; N-terminus assumed): the IC50 was 1.1 nM.

`CC(C)C[C@H](NC(=O)[C@H](CC(=O)O)NC(=O)[C@H](CC(C)C)NC(=O)[C@H](Cc1ccc(O)cc1)NC(=O)[C@H](CCCCN)NC(=O)[C@H](CO)NC(=O)[C@H](CC(C)C)NC(=O)[C@H](CC(=O)O)NC(=O)[C@H](CO)NC(=O)[C@@H](NC(=O)[C@H](Cc1ccccc1)NC(=O)[C@@H](NC(=O)CNC(=O)[C@H](CCC(N)=O)NC(=O)C1(NC(=O)[C@@H](N)Cc2c[nH]cn2)CCC1)[C@@H](C)O)[C@@H](C)O)C(=O)N[C@@H](CCCCN)C(=O)N[C@@H](CCCNC(=N)N)C(=O)N[C@@H](C)C(=O)N[C@@H](CCCNC(=N)N)C(=O)N[C@@H](CCC(=O)O)C(=O)N[C@@H](Cc1ccccc1)C(=O)N[C@H](C(=O)N[C@@H](CCC(N)=O)C(=O)N[C@@H](Cc1c[nH]c2ccccc12)C(=O)N[C@@H](CC(C)C)C(=O)N[C@@H](CC(C)C)C(=O)N[C@@H](CCCCNC(=O)CC[C@H](NC(=O)CC[C@H](NC(=O)COCCOCCNC(=O)COCCOCCNC(=O)CC[C@H](NC(=O)CC[C@H](NC(=O)CCCCCCCCCCCCCCCCC(=O)O)C(=O)O)C(=O)O)C(=O)O)C(=O)O)C(=O)N[C@H](C(N)=O)[C@@H](C)O)C(C)C` [Example 47, N^ε28-[(4S)-4-carboxy-4-[[(4S)-4-carboxy-4-[[2-[2-[2-[[2-[2-[2-[[(4S)-4-carboxy-4-[[(4S)-4-carboxy-4-(17-carboxyheptadecanoylamino)butanoyl]amino]butanoyl]amino]ethoxy]ethoxy]acetyl]amino]ethoxy]ethoxy]acetyl]amino]butanoyl]amino]butanoyl]-[Acb2,Leu10,Leu16,Lys17,Arg20,Glu21,Leu27,Lys28]-Glucagon amide] (H-H[Ac4c]QGTFTSDLSKYLDLKRAREFVQWLLK([γGlu-γGlu-AEEA-AEEA-γGlu-γGlu-C18 diacid])T-NH2; N-terminus assumed): the IC50 worked out at 0.2 nM.

Take `CC(C)C[C@H](NC(=O)[C@H](CC(=O)O)NC(=O)[C@H](CC(C)C)NC(=O)[C@H](Cc1ccc(O)cc1)NC(=O)[C@H](CCCCN)NC(=O)[C@H](CO)NC(=O)[C@H](CC(C)C)NC(=O)[C@H](CC(=O)O)NC(=O)[C@H](CO)NC(=O)[C@@H](NC(=O)[C@H](Cc1ccccc1)NC(=O)[C@@H](NC(=O)CNC(=O)[C@H](CCC(N)=O)NC(=O)C1(NC(=O)[C@@H](N)Cc2c[nH]cn2)CCC1)[C@@H](C)O)[C@@H](C)O)C(=O)N[C@@H](CCCCN)C(=O)N[C@@H](CCCNC(=N)N)C(=O)N[C@@H](C)C(=O)N[C@@H](CCCNC(=N)N)C(=O)N[C@@H](CCC(=O)O)C(=O)N[C@@H](Cc1ccccc1)C(=O)N[C@H](C(=O)N[C@@H](CCC(N)=O)C(=O)N[C@@H](Cc1c[nH]c2ccccc12)C(=O)N[C@@H](CC(C)C)C(=O)N[C@@H](CC(C)C)C(=O)N[C@@H](CCCCNC(=O)CNC(=O)[C@H](CO)NC(=O)[C@H](CCC(=O)O)NC(=O)CNC(=O)[C@H](CO)NC(=O)CC[C@H](NC(=O)CC[C@H](NC(=O)CCCCCCCCCCCCCCCCC(=O)O)C(=O)O)C(=O)O)C(=O)N[C@H](C(N)=O)[C@@H](C)O)C(C)C` [Example 48] (I: H-H[Ac4c]QGTFTSDLSKYLDLKRAREFVQWLLKT-NH2 / II: {C18 diacid-γGlu-γGlu}-SGESG; amide I:28-II:C; N-terminus assumed): the IC50 turned out to be 0.2 nM.

In general, IC50 refers to the point on the concentration scale where inhibition reaches its midpoint.

The record behind these values is US9474790B2, “Stable, protracted GLP-1/glucagon receptor co-agonists for medical use” (Novo Nordisk A/S, priority 2013, dated 2016).
